These results are taken from patent publication US20260200943A1, “COMPOUNDS FOR TREATING CANCER” (Genesis Therapeutics, Inc., priority 2022, published 2026).

The conditions of series [1]: from C=CCNC(=O)O[C@@H]1CC[C@H](c2cc(Nc3ccc(S(=O)(=O)NCC=C)cc3F)nn2C(C)(C)C)C1; rcm bond; 20-membered ring; Grubbs Cat. M204; DCE; 1.92 mM; 25.0 °C.
For series [2] the following is noted: from C=CCNC(=O)O[C@@H]1CC[C@H](c2cc(Nc3ccc(S(=O)(=O)NCC=C)cc3F)nn2C(C)(C)C)C1; rcm bond; Grubbs Cat. M204 (Grubbs II); DCE; 1.92 mM; 25.0 °C; 40.0 h.
In series [3] the target is T1, CDK9/CyclinT1 (Homo sapiens, UniProt P50750). As to the kind of experiment: CDK9/CyclinT1 ChEF Assay (AQT, Table C). In kind it is biochemical. Further details: Wild-type, full length CDK9 in complex with wildtype, CyclinT1 (1-259): Biortus Cat #BP480/792/691; purchased Biortus BP480/792/691. Particulars: 10XKm. As to the method:
16 nL of 1000× compound in 100% DMSO is added to a 384-well low volume, black assay plate. 12 μL of 1.3×CDK9/CyclinT1 (Wild-type, full length CDK9 in complex with wildtype, CyclinT1 (1-259): Biortus Cat #BP480/792/691) diluted in assay buffer (54 mM Hepes, 0.012% Brij-35, 10 mM MgCl2, 0.55 mM EGTA, 1% Glycerol, 0.02% BSA, and 1.2 mM DTT) is added to the plates on top of the compound and pre-incubated for 30 minutes at room temperature. Following the incubation, 4 μL of 4×Sox-chromophore (CSox) labeled peptide substrate (AQT0449, AssayQuant) & ATP diluted in assay buffer is added to the plate to initiate the reaction. The assay is incubated at room temperature for 180 min after initiation. The CSox peptide substrate is phosphorylated by CDK9/T1 upon ATP hydrolysis.
(§1) The fluorescent intensity measurement of the assay plate is read on a microplate reader once the assay is initiated and again at the completion of the assay. Phosphorylation of the CSox-based peptide substrate sensor results in an immediate increase in fluorescence. These raw fluorescence intensity values are normalized to calculate percent inhibition, which are fit to a four-parameter logistic curve and IC50 values are calculated. IC50 values are converted to Ki using substrate, KM^app values, and the Cheng-Prusoff equation.

For series [4], the target named is T1, CDK9/CyclinT1. As to the kind of experiment: CDK9/CyclinT1 Mobility Shift Assay (Caliper, Table B). It counts as biochemical. Further details: Wild-type, full length CDK9 in complex with wildtype, CyclinT1 (1-259): Biortus Cat #BP480/792/691; purchased Biortus BP480/792/691. The following applies: read-out: CDK9/Cyclin T1 Caliper Ki: Average Ki. Here is the method:
10 nL of 2000× compound in 100% DMSO is added to a 384-well polypropylene assay plate. 15 μL of 1.3×CDK9/T1 and 1.3× fluorescent substrate (Wild-type, full length CDK9 in complex with wildtype, CyclinT1 (1-259): Biortus Cat #BP480/792/691 and FL-Peptide 34: PerkinElmer Cat #760643) diluted in kinase buffer (50 mM Hepes, 0.01% Brij-35, 10 mM MgCl2, 1 mM EGTA, 0.05% BSA, and 2 mM DTT) is added to the plates on top of the compound, mixed, and pre-incubated for 30 minutes at room temperature. The fluorescently labeled peptide substrate is phosphorylated by CDK9/T1 upon ATP hydrolysis. Following the incubation, 5 μL of 4×ATP diluted in kinase buffer is added to the plate to initiate the reaction. Following the 30-minute incubation, the reaction is stopped by adding 75 μL of stopping buffer containing 0.5 M EDTA.
The assay plate is then read on a Lab Chip EZ Reader which separates the fluorescently labeled substrate and product peptides through a mobility difference. The phosphorylation of the substrate imparts a negative charge, which allows differences in separation as both are pulled through the microfluidic chip. The ratio of substrate and product values are used to generate percent conversion. These raw percent conversion values are normalized to calculate percent inhibition, which are fit to a four-parameter logistic curve and IC50 values are calculated. IC50 values are converted to Ki using substrate, Kmapp values, and the Cheng-Prusoff equation.

The target of another series is T2, CDK1/CyclinB1 (Homo sapiens, UniProt P06493).
T2 construct: Wild-type, full length CDK1 in complex with wildtype, full length CyclinB1: Carna Cat #04-102; purchased Carna 04-102
As to the kind of experiment: CDK1/CyclinB1 ChEF Assay (AQT, Table C). The following applies: 10xKm, read-out: CDK1/CCNB1 AQT AQT10xKm Ki: Average Ki. In kind it is biochemical. As to the method:
(§2) 16 nL of 1000× compound in 100% DMSO is added to a 384-well low volume, black assay plate. 12 μL of 1.3×CDK1/CyclinB1 (Wild-type, full length CDK1 in complex with wildtype, full length CyclinB1: Carna Cat #04-102) diluted in assay buffer (54 mM Hepes, 0.012% Brij-35, 10 mM MgCl2, 0.55 mM EGTA, 1% Glycerol, 0.02% BSA, and 1.2 mM DTT) is added to the plates on top of the compound and pre-incubated for 30 minutes at room temperature. Following the incubation, 4 uL of 4×Sox-chromophore (CSox) labeled peptide substrate (AQT0297, AssayQuant) & ATP diluted in assay buffer is added to the plate to initiate the reaction. The assay is incubated at room temperature for 120 min after initiation. The CSox peptide substrate is phosphorylated by CDK1/B1 upon ATP hydrolysis.
as §1

The target in another series is T3, CDK2/CyclinA2 (Homo sapiens, UniProt P24941).
T3 construct: Wild-type, full length CDK2 in complex with wildtype, full length CyclinA2: Carna Cat #04-103; purchased Carna 04-103
The series is described as follows: CDK2/CyclinA2 ChEF Assay (AQT, Table C). It counts as biochemical. The following applies: 10xKm; for pKi: AQT ChEF, read-out: CDK2/CCNA2 AQT10xKm Ki: Average Ki; for CDK2/CCNA2 AQT10xKm Ki: CDK2/A2 Selectivity over CDK1/B1 / CDK2/CCNA2 AQT10xKm Ki: CDK2/A2 Selectivity over CDK9: AQT. Here is the method: as §2, with “1.3×CDK2/CyclinA2” for “1.3×CDK1/CyclinB1”, “CDK2” for “CDK1”, “CyclinA2:” for “CyclinB1:”, “#04-103” for “#04-102)”, “90” for “120”, “CDK2/A2” for “CDK1/B1”
as §1

SMILES strings stand for the structures. pKi: −log10 of the molar value. Where only a bound is given, the exact number is not on record here.

T1 sequence (P50750 whole entry): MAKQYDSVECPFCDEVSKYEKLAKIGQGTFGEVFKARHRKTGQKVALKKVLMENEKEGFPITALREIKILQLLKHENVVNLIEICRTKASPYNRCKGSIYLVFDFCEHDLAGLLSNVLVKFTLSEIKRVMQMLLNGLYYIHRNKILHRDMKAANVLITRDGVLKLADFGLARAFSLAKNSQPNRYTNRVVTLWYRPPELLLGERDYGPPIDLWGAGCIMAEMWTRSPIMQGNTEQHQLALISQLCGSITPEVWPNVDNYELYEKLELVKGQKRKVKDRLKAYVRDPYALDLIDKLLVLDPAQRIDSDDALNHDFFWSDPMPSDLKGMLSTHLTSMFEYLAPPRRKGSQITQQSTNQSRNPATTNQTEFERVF
T1 sequence (O60563 1-259 partner limits assumed): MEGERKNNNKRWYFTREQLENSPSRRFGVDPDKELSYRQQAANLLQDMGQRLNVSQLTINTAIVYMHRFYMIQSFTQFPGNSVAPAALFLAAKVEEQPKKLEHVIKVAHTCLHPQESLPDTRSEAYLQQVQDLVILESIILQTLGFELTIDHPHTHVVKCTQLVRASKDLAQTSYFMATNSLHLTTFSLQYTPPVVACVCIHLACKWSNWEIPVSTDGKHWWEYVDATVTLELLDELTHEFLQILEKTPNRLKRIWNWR
T2 sequence (P06493 whole entry): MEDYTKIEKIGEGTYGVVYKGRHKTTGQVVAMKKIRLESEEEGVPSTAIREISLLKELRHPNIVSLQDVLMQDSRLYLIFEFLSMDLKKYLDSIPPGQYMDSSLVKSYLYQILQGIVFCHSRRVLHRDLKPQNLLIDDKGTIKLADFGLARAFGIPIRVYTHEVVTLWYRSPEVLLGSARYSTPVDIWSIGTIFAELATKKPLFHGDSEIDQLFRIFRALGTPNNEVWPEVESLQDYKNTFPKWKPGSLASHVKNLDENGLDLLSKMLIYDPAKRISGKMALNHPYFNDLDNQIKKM
T2 sequence (P14635 whole entry partner): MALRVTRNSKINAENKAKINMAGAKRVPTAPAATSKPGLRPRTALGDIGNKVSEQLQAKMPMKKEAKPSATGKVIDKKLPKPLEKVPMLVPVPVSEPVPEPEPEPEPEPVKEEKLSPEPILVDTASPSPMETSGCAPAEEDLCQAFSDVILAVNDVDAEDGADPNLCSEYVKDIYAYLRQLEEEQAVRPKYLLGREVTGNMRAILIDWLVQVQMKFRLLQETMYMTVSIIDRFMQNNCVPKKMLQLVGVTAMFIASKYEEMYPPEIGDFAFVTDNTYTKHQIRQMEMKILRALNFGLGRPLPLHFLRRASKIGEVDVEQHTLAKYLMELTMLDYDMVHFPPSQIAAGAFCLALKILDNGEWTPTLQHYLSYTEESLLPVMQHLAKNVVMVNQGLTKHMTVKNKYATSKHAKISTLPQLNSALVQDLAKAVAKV

`CC(C)(C)n1nc2cc1[C@H]1CC[C@H](C1)OC(=O)NCC=CCNS(=O)(=O)c1ccc(c(F)c1)N2` gave a ring closure, yield after HPLC in series [1] of 29%. Moreover, the ring closure, yield of all isomers in series [2] is 29%.
Regarding `NS(=O)(=O)c1ccc2cc1OCCCCCNC(=O)O[C@H]1CC[C@H](C1)c1cnc(nc1)N2` (stereo in doubt) [Compound 103, 12-oxo-5,13-dioxa-3,11-diaza-2(5,2)-pyrimidina-4(1,3)-benzena-1(1,3)-cyclopentanacyclotridecaphane-44-sulfonamide], the pKi at CDK9/CyclinT1 [3] was 7.60 to 9.00; on CDK9/CyclinT1 [4] it was at most 7.00; at CDK1/CyclinB1 it was 7.60 to 9.00; on CDK2/CyclinA2, over 9.00. Further, the “CDK2/CCNA2 AQT10xKm Ki: CDK2/A2 Selectivity over CDK1/B1” value at CDK2/CyclinA2 was “A (A>10)”. Also, on CDK2/CyclinA2, the “CDK2/CCNA2 AQT10xKm Ki: CDK2/A2 Selectivity over CDK9” value is on record as “A (A>10)”.
Take `NS(=O)(=O)c1ccc2cc1OCCCCCNC(=O)O[C@H]1CC[C@H](C1)c1cnc(nc1)N2` (stereo in doubt) [Compound 104, rel-(2R,5S)-7-oxo-6,14-dioxa-8,20,22,25-tetraazatetracyclo[19.2.2.1^{2,5}.1^{15,19}]heptacosa-1(23),15,17,19(26),21,24-hexaene-16-sulfonamide]: the pKi on CDK9/CyclinT1 [3] is at most 7.00; on CDK9/CyclinT1 [4], at most 7.00; on CDK1/CyclinB1, 7.60 to 9.00; on CDK2/CyclinA2, over 9.00. Besides, the “CDK2/CCNA2 AQT10xKm Ki: CDK2/A2 Selectivity over CDK1/B1” value on CDK2/CyclinA2 is “A (A>10)”. Besides, on CDK2/CyclinA2, the “CDK2/CCNA2 AQT10xKm Ki: CDK2/A2 Selectivity over CDK9” value is reported as “A (A>10)”.
